Experimental data from PMC6105804, “In Vitro and In Vivo Evaluation of APX001A/APX001 and Other Gwt1 Inhibitors against Cryptococcus” (Antimicrobial Agents and Chemotherapy, 2018).
≈ marks a conversion by molar mass, not a printed value.

Columns and labels:
C. neoformans strain H99 [1] = assay: Murine cryptococcal meningitis model with ABT pretreatment (preliminary experiment); assay type: in vivo, Cryptococcus neoformans; settings: 7 days
Protocol: In a preliminary experiment, the efficacies of APX001, APX2096, and APX2097 were evaluated in the disseminated model of CM (n = 5 mice/cohort). ABT at 100 mg/kg was administered orally to male CD-1 mice 2 h prior to APX compound administration. Mice were injected with 6.9 × 10^4 CFU of C. neoformans strain H99 per mouse via the lateral tail vein at time zero. Treatment with each prodrug was initiated at about 1 h postinfection by i.p. administration and continued daily for 7 days, with 100-mg/kg ABT being administered orally 2 h prior to each APX compound dose.
(§1) ABT at 100 mg/kg was administered orally to male CD-1 mice at 2 h prior to each APX compound dose. Mice were injected with 6.9 × 10^4 CFU of C. neoformans strain H99 per mouse via the lateral tail vein at time zero. Treatment with the APX compound was initiated at about 1 h postinfection by i.p. administration and continued for 7 days, with 100-mg/kg ABT being administered orally 2 h prior to each APX compound dose. […] Fungal burden data were log10 transformed and evaluated using Kruskal-Wallis tests with Dunn's multiple-comparison test for post hoc analysis (Prism software, v5; GraphPad Software, Inc., San Diego, CA). A P value of ≤0.05 was considered statistically significant (*, P ≤ 0.05; **, P ≤ 0.01). The 95% confidence interval (CI) is presented.
(§2) C. neoformans strain H99 was grown in yeast extract-peptone-dextrose broth at 30°C on a shaker (220 rpm) for 24 h, centrifuged (1,980 relative centrifugal force), and washed twice in phosphate-buffered saline (PBS), resuspended in PBS, and quantified by hemacytometric count. Male CD-1 mice were infected with ∼5 × 10^4 CFU per mouse via lateral tail vein injection of 100 μl. Mice were weighed, and treatment was begun within 1 h after infection. Treatments were administered daily for 7 days. Mice were weighed daily and observed for acute and chronic adverse symptoms. Mice were sacrificed on day 8, and the brain and left lung were homogenized and cultured for quantitative determination of the tissue burden (number of CFU per gram of tissue). Tissues were homogenized for 25 s in 1 ml phosphate-buffered saline using two 6.5-mm steel beads and a Mini-Beadbeater 16 apparatus (Biospec Products, Inc., Bartlesville, OK) and serially diluted in 10-fold steps. Aliquots (100 μl) of homogenate were plated and incubated for 3 to 7 days at 37°C. Fungal burden data were log10 transformed and evaluated using Kruskal-Wallis tests with Dunn's multiple-comparison test for post hoc analysis (Prism software, v5; GraphPad Software, Inc., San Diego, CA). A P value of ≤0.05 was considered statistically significant.

C. neoformans strain H99 [2] = assay: Murine cryptococcal meningitis model with ABT, dose-response study; assay type: in vivo, Cryptococcus neoformans
Protocol: A dose-response study was performed with APX2096 and APX2097 to confirm the observed activity. In this study, QD doses of 7.5, 20, and 60 mg/kg were evaluated in conjunction with the administration of ABT. A 60-mg/kg dose QD without ABT was also evaluated as a control.
FIG 3 Dose-response of APX2096 and APX2097 in a murine model of cryptococcal meningitis in conjunction with ABT administration. ABT at 100 mg/kg was administered orally to male CD-1 mice at 2 h prior to each APX compound dose. Mice were injected with 4.8 × 10^4 CFU C. neoformans strain H99 per mouse via the lateral tail vein at time zero. Treatment with the APX compounds was initiated at 1 h postinfection by i.p. administration and continued for 7 days, with 100-mg/kg ABT being administered orally 2 h prior to each APX compound dose. The correction factors for prodrug potencies versus the potencies of the active moieties were similar enough such that the same factor (1.3) was used for all APX compounds. Fungal burden data were log10 transformed and evaluated using Kruskal-Wallis tests with Dunn's multiple-comparison test for post hoc analysis (Prism software, v5; GraphPad Software, Inc., San Diego, CA). […] A P value of ≤0.05 was considered statistically significant (*, P ≤ 0.05; **, P ≤ 0.01; ***, P ≤ 0.001). The 95% confidence interval (CI) is presented.
as §2

[3] = Acute toxicity and survival observed in the CM model with ABT; assay type: in vivo, mouse; settings: i.p. dosing + ABT; dose then reduced to 60 mg/kg for surviving mice
Protocol: as §1, §2

C. neoformans = system: C. neoformans; set-up: method as in PMID 15078612; settings: U.S. isolates; cited from earlier work
[4] = 34 mg/kg QD i.p. + ABT 100 mg/kg p.o.
[5] = 85 mg/kg QD i.p. + ABT 100 mg/kg p.o.
[6] = QD doses of 7.5, 20 and 60 mg/kg i.p. + ABT
[7] = QD doses of 7.5, 20 and 60 mg/kg i.p. + ABT, not significant

## Nc1c(-c2cc(Cc3ccc(OCc4ccccc4)cc3)no2)ccc[n+]1COP(=O)([O-])O [APX2097]
C. neoformans strain H99 [1]; [4]
  reduction in brain fungal burden: 1.66 log10 CFU/g
  reduction in lung fungal burden: 1.07 log10 CFU/g
C. neoformans strain H99 [1]; [5]
  reduction in brain fungal burden: 2.72 log10 CFU/g
  reduction in lung fungal burden: 3.28 log10 CFU/g
C. neoformans strain H99 [2]; 60 mg/kg QD i.p. + ABT
  reduction in brain fungal burden: 1.45 log10 CFU/g
  reduction in lung fungal burden: 1.55 log10 CFU/g
C. neoformans strain H99 [2]; [6]
  dose-dependent change in brain fungal burden: increase end of range: 0.24 log10 CFU/g
  dose-dependent change in lung fungal burden: increase end of range: 1.20 log10 CFU/g
C. neoformans strain H99 [2]; [7]
  dose-dependent change in brain fungal burden: reduction end of range: 1.45 log10 CFU/g
  dose-dependent change in lung fungal burden: reduction end of range: 1.55 log10 CFU/g
[3]
  Acute toxicity observed (day of treatment): day 6

## Nc1[nH]c(=O)ncc1F [flucytosine]
C. neoformans
  MIC90: 8 µg/mL (≈ 62 µM)

## CCC(C)n1ncn(-c2ccc(N3CCN(c4ccc(OCC5COC(Cn6cncn6)(c6ccc(Cl)cc6Cl)O5)cc4)CC3)cc2)c1=O (centres unmarked) [itraconazole]
C. neoformans
  MIC90: 0.125 µg/mL (≈ 0.177 µM)

## CC(=O)N1CCN(c2ccc(OCC3COC(Cn4ccnc4)(c4ccc(Cl)cc4Cl)O3)cc2)CC1 (centres unmarked) [ketoconazole]
C. neoformans
  MIC90: 0.06 µg/mL (≈ 0.113 µM)
